Measured values from patent US11234979B2, “Heteroaryl compounds as muscarinic M1 receptor positive allosteric modulators” (SUVEN LIFE SCIENCES LIMITED, priority 2017, dated 2022).

System: hippocampal theta oscillations
Assay: Theta modulation in dorsal hippocampus of anesthetized rats in combination with donepezil
Type: in vivo, Male Wistar rats
Conditions: anesthetized rat, Example 32 1 mg/kg
Excerpt: Evaluation of Theta Modulation in Dorsal Hippocampus of Anesthetized Male Wistar
Male Wistar rats (240-320 g) were anesthetized by Intraperitoneal administration of urethane (1.2 to 1.5 g/kg) for implantation of a catheter in the left femoral vein. The animal was placed in a stereotaxic frame for implanting an electrode (stainless steel wire, Plastics One) into the dorsal hippocampus (AP: −3.8 mm; ML: +2.2 mm; DV: −2.5 mm; Paxinos and Watson, 2004). Bipolar stimulating electrode (untwisted stainless steel wires, separated by 0.75-1.0 mm at their tips, Plastics One) was implanted in the Nucleus Pontis Oralis (NPO; AP: −7.8 mm; ML: 1.8 mm; DV: −6.0 mm; Paxinos and Watson, 2004). Additionally one electrode was implanted into the cerebellum which served as a reference. Hippocampal θ rhythm was evoked via a 6-s electrical stimulation train (20-160 μA, 0.3-ms pulse duration, 250 Hz) delivered to the NPO at a rate of 0.01 trains/s with a Grass S88 stimulator and PSIU6 stimulus isolation unit (Grass Medical Instruments, Quincy, Mass.). EEG was recorded at a rate of 1000 Hz using Ponemah (Version 5.2) software and stored for off-line analysis using NeuroScore (Version 3.0). Baseline amplitude level was achieved by using the current required to elicit […] to 50% of the maximal amplitude under control conditions. After the stabilization period of one hour, baseline recording was done for 30 min followed by the treatment of vehicle or Example 32 (1 mg/kg, i.v.).
Power in the θ rhythm frequency in the stimulation period during the 30-min baseline period was calculated and the % changes in these measures post treatment were calculated. […] Statistical significance was considered at a p value less than 0.05.

In the case of `Cn1cc(-c2ccc(Cc3cc(C(=O)N[C@H]4CCCC[C@@H]4O)n4ncccc34)cc2)cn1` [Example 32, N-(cis-1S,2S-2-Hydroxycyclohexyl)-5-[4-(1-methyl-1H-pyrazol-4-yl)-benzyl]-pyrrolo [1,2-b]pyridazine-7-carboxamide], the “Mean area under the curve values (AUC) of θ power change, combination versus donepezil alone” value (i.v. + donepezil 0.3 mg/kg) is reported as “significantly higher compared to donepezil alone”, the “effect on θ power, combination treatment versus donepezil alone” value (i.v. + donepezil 0.3 mg/kg) is reported as “significantly higher than the donepezil alone” and the θ power levels (i.v. in combination with donepezil 0.3 mg/kg) is reported as “significant increase”.
